Test results: BindingDB's records for doi:10.1021/acs.jnatprod.7b00282 (Chiba University, 2017)

Test: Inhibition of recombinant mouse N-terminal FLAG-tagged Notch1 (1704 to 2531 residues) expressed in human LS174T cells assessed as reduction in doxycycline-induced NICD expression after 12 hrs by Bright-Glo luciferase reporter gene assay

SMILES	IC50 [nM]
C[C@@H]1C[C@@]2(N=CCS2)[C@]2(O)O[C@@H]3C[C@@]4(C=O)[C@@H](CC[C@@H]5[C@@H]4CC[C@]4(C)[C@@H](C6=CC(=O)OC6)[C@H](O)C[C@]54O)C[C@H]3O[C@@H]2O1	700
C[C@@H]1C[C@@]2(NCCS2)[C@]2(O)O[C@@H]3C[C@@]4(C=O)[C@@H](CC[C@@H]5[C@@H]4CC[C@]4(C)[C@@H](C6=CC(=O)OC6)CC[C@]54O)C[C@H]3O[C@@H]2O1	2000
C[C@@H]1C[C@@]2(NC(=O)CS2)[C@]2(O)O[C@@H]3C[C@@]4(C=O)[C@@H](CC[C@@H]5[C@@H]4CC[C@]4(C)[C@@H](C6=CC(=O)OC6)CC[C@]54O)C[C@H]3O[C@@H]2O1	300
COC(=O)[C@@]1(O)C[C@@H](C)O[C@H]1O[C@@H]1C[C@@H]2CC[C@@H]3[C@H](CC[C@]4(C)[C@@H](C5=CC(=O)OC5)[C@H](O)C[C@]34O)[C@@]2(C=O)C[C@H]1O	17300
CC(=O)O[C@H]1C[C@@H](C)O[C@H]2O[C@@H]3C[C@@H]4CC[C@@H]5[C@H](CC[C@]6(C)[C@@H](C7=CC(=O)OC7)CC[C@]56O)[C@@]4(C=O)C[C@H]3O[C@]21O [CHEBI:2867]	300
C[C@@H]1C[C@H](O)[C@]2(O)O[C@@H]3C[C@@]4(C=O)[C@@H](CC[C@@H]5[C@@H]4CC[C@]4(C)[C@@H](C6=CC(=O)OC6)CC[C@]54O)C[C@H]3O[C@@H]2O1 [CHEBI:3329]	800
C[C@@H]1CC(=O)[C@]2(O)O[C@@H]3C[C@@]4(C=O)[C@@H](CC[C@@H]5[C@@H]4CC[C@]4(C)[C@@H](C6=CC(=O)OC6)CC[C@]54O)C[C@H]3O[C@@H]2O1 [CHEBI:9913]	2400
C[C@@H]1C[C@@]2(N=CCS2)[C@]2(O)O[C@@H]3C[C@@]4(C=O)[C@@H](CC[C@@H]5[C@@H]4CC[C@]4(C)[C@@H](C6=CC(=O)OC6)CC[C@]54O)C[C@H]3O[C@@H]2O1 [Uscharin]	400
